Test results: patent publication US20230364109A1, “GANAXOLONE FOR USE IN TREATMENT OF SUPER REFRACTORY STATUS EPILEPTICUS” (MARINUS PHARMACEUTICALS, INC., priority 2020, published 2023)

Key:
[1] = test system: super refractory status epilepticus; settings: for response of SRSE to treatment given before GNX: same patient, before pentobarbitol coma or during it (ACTH)
[2] = test system: γ-aminobutyric acid type A (GABAA) receptors; settings: Carter et al 1997; cited from earlier work
progesterone receptor = biological target: T1, progesterone receptor (Homo sapiens, UniProt P06401); experiment: activation of the progesterone receptor (hormonal activity); settings: directly or via metabolic conversion
T1 sequence (P06401 1-933): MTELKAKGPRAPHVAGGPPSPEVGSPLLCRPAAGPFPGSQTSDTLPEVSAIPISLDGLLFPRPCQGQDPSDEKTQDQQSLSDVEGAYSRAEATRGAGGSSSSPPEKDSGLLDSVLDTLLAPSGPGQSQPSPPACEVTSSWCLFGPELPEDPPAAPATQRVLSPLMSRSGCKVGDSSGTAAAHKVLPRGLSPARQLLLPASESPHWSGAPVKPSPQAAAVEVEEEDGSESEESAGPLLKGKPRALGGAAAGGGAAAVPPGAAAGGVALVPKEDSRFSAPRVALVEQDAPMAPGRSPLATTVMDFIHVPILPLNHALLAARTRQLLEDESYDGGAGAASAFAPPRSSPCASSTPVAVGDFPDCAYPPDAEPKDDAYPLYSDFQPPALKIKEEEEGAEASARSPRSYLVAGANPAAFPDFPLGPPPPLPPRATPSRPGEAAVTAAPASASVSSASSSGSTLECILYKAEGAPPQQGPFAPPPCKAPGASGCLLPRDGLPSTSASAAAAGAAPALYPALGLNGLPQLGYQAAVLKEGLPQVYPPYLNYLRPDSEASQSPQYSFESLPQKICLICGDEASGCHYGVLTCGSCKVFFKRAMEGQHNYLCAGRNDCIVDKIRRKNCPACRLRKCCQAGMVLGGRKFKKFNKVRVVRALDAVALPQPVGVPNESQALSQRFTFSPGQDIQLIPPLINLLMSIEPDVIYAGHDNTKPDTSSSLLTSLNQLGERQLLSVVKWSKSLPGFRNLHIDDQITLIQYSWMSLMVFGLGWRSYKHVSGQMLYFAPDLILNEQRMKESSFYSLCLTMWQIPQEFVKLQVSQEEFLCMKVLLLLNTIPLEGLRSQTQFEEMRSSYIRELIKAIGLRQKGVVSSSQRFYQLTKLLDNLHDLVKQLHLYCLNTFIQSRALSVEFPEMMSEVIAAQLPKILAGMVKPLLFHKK
Source text: Ganaxolone (3α-hydroxy-3β-methyl-5α-pregnan-20-one) is a 3β-methylated synthetic analogue of the endogenous neurosteroid allopregnanolone with similar biological activity (Carter et al., (1997), The Journal of Pharmacology and Experimental Therapeutics, 280:1284-1295), but it is designed to not activate nuclear (classical) progesterone receptors.

CYP3A⅘ = experiment: metabolism and interaction with strong CYP inducers (in vitro data and human PK data)
[3] = cited from earlier work
[4] = toxicology studies in animals focusing on prenatal and neonatal development; type: in vivo
Source text: (§1) Ganaxolone has been administered to infants with severe forms of epilepsy as early as 4 months of age. In clinical trials involving administration of ganaxolone over several weeks, the study drug has been tapered off over a 1 to 2-week period.

status epilepticus = experiment: Case Report 1: IV to enteric GNX in a person with SE; type: in vivo, human
Source text: FIGS. 3A-3C show video EEGs in the patient described in Example 2 on day 1 (FIG. 3A), day 2 (FIG. 3B), and day 5 (FIG. 3C). […] Double banana bipolar montage: LFF 1 Hz, HFF 70 Hz; sensitivity, 15 µV/mm; time base, 30 mm/s. EEG, electroencephalogram; HFF, high-frequency filter; LFF, low-frequency filter.
A person with a history of sporadic primarily febrile and rare afebrile convulsive seizures in early childhood had been seizure-free for 10 years off medication until they began to have focal seizures with generalization. Seizure semiology was characterized by eye fluttering with rapid bilateral involvement at times with leftward head/eye deviation as clusters prior to generalization. They had recurrent seizures over the first three weeks and was admitted to an outside hospital for SE requiring intubation. […] They were transferred to the inpatient pediatric rehabilitation unit after being seizure-free for one month on 5 antiseizure medications (cannabidiol, perampanel, phenobarbital, lacosamide, lorazepam), pyridoxine, ketogenic diet, anakinra, and menstrual suppression.
A thorough infectious, metabolic, genetic, vascular and autoimmune evaluation was non-diagnostic. While in the inpatient rehabilitation unit they developed a fever of 41.7° C. and respiratory viral panel was positive for parainfluenza. SE returned requiring transfer to the ICU for midazolam and pentobarbital infusions. […] They were seizure-free for two days after drips were weaned before seizures returned prompting vagus nerve stimulator placement and a prolonged 2-week course of IV pentobarbital titrated to EEG burst suppression. As pentobarbital was weaned off, convulsive seizures returned.
They were granted E-IND approval for a trial of IV to enteric GNX. GNX was administered using an IV bolus followed by infusion over 4 days (with boluses as needed for breakthrough seizures): on day 1 pentobarbital was discontinued; by day 3 clinical and electrographic seizures stopped.
One month after ganaxolone initiation, the patient was transferred to inpatient rehabilitation services and they were discharged home 1 month later. They were weaned off the ketogenic diet, anakinra, and felbamate with minimal breakthrough clinical seizures (only in setting of intercurrent illness or decreasing ASMs). […] Patient continues to be on ganaxolone and 4 other ASMs (valproic acid, brivaracetam, lorazepam, perampanel). See, FIGS. 1, 2, and 3A-3C.

[5] = safety in the ganaxolone clinical development program; type: in vivo, human
Source text: In the completed placebo-controlled Phase 1, 2, and 3 studies, 0.32% of subjects who received ganaxolone and 0.46% of subjects who received placebo developed elevated LFTs during the study (>3x ULN AST and/or ALT). A subject participating in the ganaxolone paediatric epilepsy study developed liver failure, which was not considered to be related to ganaxolone. The subject was diagnosed with short bowel syndrome, liver steatosis and IgG-cholangitis, which were considered to be the causal factors for the subject’s liver failure. There have been no other cases of Hy’s Law or liver failure in the ganaxolone development program. […] After cessation of the dosing, plasma ganaxolone levels are expected to drop rapidly, but it is possible that low sub-therapeutic levels persist for several days as ganaxolone is slowly released from tissues.
as §1

solubility of ganaxolone = type: physicochemical
Method: Ganaxolone is insoluble in water. […] Ganaxolone has a relatively long half-life - approximately 20 hours in human plasma following oral administration (Nohria, V. and Giller, E., Neurotherapeutics, (2007) 4(1): 102-105). Furthermore, ganaxolone has a short Tmax, which means that therapeutic blood levels are reached quickly.
Ganaxolone formulations suitable for parenteral administration in the methods of the present invention may comprise physiologically acceptable sterile aqueous or non-aqueous solutions, dispersions, suspensions or emulsions, and sterile powders for reconstitution into sterile injectable solutions or dispersions. Examples of suitable aqueous and non-aqueous carriers, diluents, solvents, or vehicles including water, ethanol, polyols (propylene glycol, polyethylene-glycol, glycerol, cremophor and the like), suitable mixtures thereof, vegetable oils (such as olive oil) and injectable organic esters such as ethyl oleate. Additionally, ganaxolone can be dissolved at concentrations of >1 mg/ml using water soluble beta cyclodextrins (e.g. beta-sulfobutyl-cyclodextrin and 2-hydroxypropylbetacyclodextrin). A particularly suitable cyclodextrin is a substituted-β-cyclodextrin is Captisol®. […]

SE = experiment: ganaxolone intravenous bolus plus continuous infusion in SE (inventors' earlier finding); type: in vivo; settings: plasma concentration 500 ng/ml or higher for at least about 8 hours
Source text: As described and exemplified herein, the inventors believe that ganaxolone holds promise as an effective therapy for SRSE. […] However, as discussed above, SRSE patients are an extremely ill subset of patients in which SE continues or recurs despite therapy with anesthetic agents (e.g., midazolam, propofol, ketamine, or barbiturate). […] When this occurs, the patient is typically then re-administered anesthetic agents at doses to cause burst suppression and to induce coma. As such, patients are typically weaned off anesthetics very slowly and typically by reducing anesthetics by no more than about 20% per day.

[6] = test system: super refractory status epilepticus; experiment: Case Report 3: IV-to-enteric ganaxolone in a person with super refractory status epilepticus (FIRES); type: in vivo, human
Source text: A previously healthy person presented with encephalopathy and fever and developed super refractory status epilepticus concordant with fever-induced refractory […] (FIRES). On administration, the patient presented in the emergency department (ED) with fever, abdominal pain, and encephalopathy. Patient was admitted to pediatric intensive care unit (PICU) and placed on video-electroencephalogram (vEEG). See, FIG. 4.
Immunomodulatory therapies with IV methylprednisolone and IVIG were initiated concomitantly.
After multiple ASMs, failed attempts to wean pentobarbital, and ketamine and midazolam infusions, they were treated under EIND approval for a trial of IV-to-enteric ganaxolone. Ganaxolone was administered on hospital day 17 using an IV bolus, followed by infusion over 6 days (with boluses as needed for breakthrough seizures) (FIG. 5). Midazolam was discontinued on day 2 of GNX IV protocol; ketamine was discontinued by day 8 with the assistance of phenobarbital loads and maintenance Anakinra was initiated on day 2 of GNX IV protocol (hospital day 19).

[7] = test system: patients with super refractory SE; settings: Phase 3, randomized, double-blind, placebo-controlled; cited from earlier work

For Cc1ncc2n1-c1ccc(Cl)cc1C(c1ccccc1F)=NC2 [midazolam], the “response of SRSE to treatment given before GNX” value (“response of SRSE” for short) [1] was “No response”.
In the case of CC(=O)[C@H]1CC[C@H]2[C@@H]3CC[C@H]4C[C@](C)(O)CC[C@]4(C)[C@H]3CC[C@]12C [ganaxolone, 3α-hydroxy-3β-methyl-5α-pregnan-20-one], the “action on GABAA receptors in the CNS” value [2] is given as “positive allosteric modulator”, the “activation of the progesterone receptor” value (progesterone receptor) is given as “does not activate the progesterone receptor directly or indirectly” and the metabolizing enzyme (CYP3A⅘; human, in vivo) is given as “metabolized by CYP3A⅘”. For the same molecule, the “lowering in overall ganaxolone levels and exposure” value (CYP3A⅘; subjects taking strong CYP inducers (carbamazepine and phenytoin)) was roughly 45%, the half-life ([3]; human plasma, oral administration, Nohria and Giller 2007) was “approximately 20 hours” and the oral bioavailability ([3]; in contrast to allopregnanolone) was “orally bioavailable”. The Tmax ([3]; in vivo) was “short”, the “time to improvement on EEG” value ([1]; after IV GNX bolus 0.64 mg/kg) was no more than 10 min and the “clinical seizures after hospitalization” value ([1]; four weeks after discharge, on oral GNX, 20 seizures per day at baseline) was “no clinical seizures”. The “time of IV GNX until extubation” value ([1]; in vivo, iv) was 48 h, the “prenatal and neonatal developmental toxicity” value [4] was “have not demonstrated toxicities” and the “day by which clinical and electrographic seizures stopped” value (status epilepticus; IV bolus followed by infusion over 4 days) was no more than 3 days. The “video EEG finding (FIG. 3C)” value (status epilepticus; day 5 of protocol, transition from IV to enteric GNX) was “cessation of seizures”, the “seizure status after transition from IV to enteric GNX” value (status epilepticus; from Day 5) was “has remained seizure-free” and the durability of response (status epilepticus; more than one year later) was “response to ganaxolone and seizure cessation were sustained”. For the same molecule, the “withdrawal symptoms after cessation” value ([5]; clinical trials, tapered off over 1 to 2 weeks) was “no reports of withdrawal symptoms”, the “subjects who developed elevated LFTs (>3x ULN AST and/or ALT)” value ([5]; completed placebo-controlled Phase 1, 2, and 3 studies) was 0.32% and the “ECG intervals, vital signs, physical or neurological examinations” value ([5]; development program overall) was “no clinically significant trends”. The “excretion to breast milk” value ([5]; ganaxolone and its metabolites) was “excreted to breast milk”, the solubility (solubility of ganaxolone; aqueous with cosolvent or surfactant or cyclodextrin, beta-sulfobutyl-cyclodextrin, 2-hydroxypropylbetacyclodextrin, read-out: concentration dissolved using water soluble beta cyclodextrins) was greater than 1000 µg/mL and the solubility in water (solubility of ganaxolone; water) was “insoluble”. For the same molecule, the “suppression of SE” value (SE) was “rapid and continued suppression of SE”, the “day of GNX IV protocol on which midazolam was discontinued” value ([6]; IV bolus, infusion over 6 days) was 2 days and the clinical status ([6]; at 6 weeks, transfer from ICU to the floor) was “alert and was responsive with some vocalizations”. The clinical status ([6]; by 4 weeks after admission) was “more responsive” and the “day by which ketamine was discontinued” value ([6]; with the assistance of phenobarbital loads and maintenance) was no more than 8 days.
For N#Cc1ccccc1-c1cc(-c2ccccn2)cn(-c2ccccc2)c1=O [perampanel], the “response of SRSE” value [1] was “No response”.
In the case of CCC1(C)CC(=O)NC1=O (stereo not drawn) [ethoxsuccimide], the “response of SRSE” value [1] is reported as “No response”.
For O=C1Nc2ccc(Cl)cc2C(c2ccccc2Cl)=NC1O (stereo not drawn) [lorazepam], the “response of SRSE” value [1] was “No response”.
CCCC(CCC)C(=O)O [valproic acid] showed a serum level ([1]; female, human, in vivo) of 106 µg/mL.
For CC(=O)[C@H]1CC[C@H]2[C@@H]3CC[C@H]4C[C@H](O)CC[C@]4(C)[C@H]3CC[C@]12C [brexanolone], the “efficacy over placebo in SRSE” value [7] is listed as “failed to show efficacy over placebo”.
For CN1C(=O)CN=C(c2ccccc2)c2cc(Cl)ccc21 [diazepam], the “response of SRSE” value [1] was “No response”.
